Target: T1, CENP-E (Homo sapiens, UniProt Q02224)
T1 construct: gene CENPE; motor domain
T1 sequence (Q02224 6-329 limits assumed): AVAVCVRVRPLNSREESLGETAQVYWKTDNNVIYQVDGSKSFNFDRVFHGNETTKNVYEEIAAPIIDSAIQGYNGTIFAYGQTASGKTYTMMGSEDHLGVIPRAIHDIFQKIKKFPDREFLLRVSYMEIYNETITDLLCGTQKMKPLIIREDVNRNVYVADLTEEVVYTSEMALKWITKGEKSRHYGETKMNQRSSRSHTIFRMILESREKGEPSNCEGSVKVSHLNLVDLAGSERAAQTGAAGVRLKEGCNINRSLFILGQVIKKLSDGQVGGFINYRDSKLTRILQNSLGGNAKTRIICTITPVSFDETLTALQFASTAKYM
Experiment: ATPase activity assay of the CENP-E motor domain
Type: biochemical

IC50: 2.2 nM
SMILES: COc1cccc2nc(C(=O)N(CCN(C)C)C3CS(=O)(=O)c4c3ccc(C(F)(F)F)c4C#N)c(-c3ccc(F)c(C)c3)n12 (single isomer, unassigned; (+)) [Cmpd-A, (+)-N-[7-cyano-1,1-dioxido-6-(trifluoromethyl)-2,3-dihydro-1-benzothiophen-3-yl]-N-[2-(dimethylamino)ethyl]-3-(4-fluoro-3-methylphenyl)-5-methoxyimidazo[1,2-a]pyridine-2-carboxamide]

— paper PMC4506520, “Aneuploidy generates proteotoxic stress and DNA damage concurrently with p53-mediated post-mitotic apoptosis in SAC-impaired cells” (Nature Communications, 2015)
